Where two headings read alike, the source gives them in different places.
Target: T1, human GluN1/GluN2B NMDA receptors (Homo sapiens, UniProt Q13224)
T1 construct: expressed in transfected cells
Test: Cell-based calcium flux (FLIPR) assay on cloned human NR1/NR2B ion channels expressed in mammalian cells (standard and HTS buffer variants);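 further: stable Tet-On inducible cell line, Ca2+ influx triggered by glutamate at about EC40 plus 10 µM glycine, fluorescent dye read-out over 5 min, normalized to control wells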
Conditions: human GluN1/GluN2B

[1] = HTS assay buffer (1.5 mM MgCl2 in dye loading buffer; 150 mM NaCl, 3 mM KCl in assay buffer), read-out: NR2B IC50 (μM) HTS assay
[2] = standard assay buffer (0.5 mM MgCl2 in dye loading buffer; 137 mM NaCl, 4 mM KCl in assay buffer), read-out: NR2B IC50 (μM) standard assay

T1 sequence (Q13224 27-1484, other chains not shown): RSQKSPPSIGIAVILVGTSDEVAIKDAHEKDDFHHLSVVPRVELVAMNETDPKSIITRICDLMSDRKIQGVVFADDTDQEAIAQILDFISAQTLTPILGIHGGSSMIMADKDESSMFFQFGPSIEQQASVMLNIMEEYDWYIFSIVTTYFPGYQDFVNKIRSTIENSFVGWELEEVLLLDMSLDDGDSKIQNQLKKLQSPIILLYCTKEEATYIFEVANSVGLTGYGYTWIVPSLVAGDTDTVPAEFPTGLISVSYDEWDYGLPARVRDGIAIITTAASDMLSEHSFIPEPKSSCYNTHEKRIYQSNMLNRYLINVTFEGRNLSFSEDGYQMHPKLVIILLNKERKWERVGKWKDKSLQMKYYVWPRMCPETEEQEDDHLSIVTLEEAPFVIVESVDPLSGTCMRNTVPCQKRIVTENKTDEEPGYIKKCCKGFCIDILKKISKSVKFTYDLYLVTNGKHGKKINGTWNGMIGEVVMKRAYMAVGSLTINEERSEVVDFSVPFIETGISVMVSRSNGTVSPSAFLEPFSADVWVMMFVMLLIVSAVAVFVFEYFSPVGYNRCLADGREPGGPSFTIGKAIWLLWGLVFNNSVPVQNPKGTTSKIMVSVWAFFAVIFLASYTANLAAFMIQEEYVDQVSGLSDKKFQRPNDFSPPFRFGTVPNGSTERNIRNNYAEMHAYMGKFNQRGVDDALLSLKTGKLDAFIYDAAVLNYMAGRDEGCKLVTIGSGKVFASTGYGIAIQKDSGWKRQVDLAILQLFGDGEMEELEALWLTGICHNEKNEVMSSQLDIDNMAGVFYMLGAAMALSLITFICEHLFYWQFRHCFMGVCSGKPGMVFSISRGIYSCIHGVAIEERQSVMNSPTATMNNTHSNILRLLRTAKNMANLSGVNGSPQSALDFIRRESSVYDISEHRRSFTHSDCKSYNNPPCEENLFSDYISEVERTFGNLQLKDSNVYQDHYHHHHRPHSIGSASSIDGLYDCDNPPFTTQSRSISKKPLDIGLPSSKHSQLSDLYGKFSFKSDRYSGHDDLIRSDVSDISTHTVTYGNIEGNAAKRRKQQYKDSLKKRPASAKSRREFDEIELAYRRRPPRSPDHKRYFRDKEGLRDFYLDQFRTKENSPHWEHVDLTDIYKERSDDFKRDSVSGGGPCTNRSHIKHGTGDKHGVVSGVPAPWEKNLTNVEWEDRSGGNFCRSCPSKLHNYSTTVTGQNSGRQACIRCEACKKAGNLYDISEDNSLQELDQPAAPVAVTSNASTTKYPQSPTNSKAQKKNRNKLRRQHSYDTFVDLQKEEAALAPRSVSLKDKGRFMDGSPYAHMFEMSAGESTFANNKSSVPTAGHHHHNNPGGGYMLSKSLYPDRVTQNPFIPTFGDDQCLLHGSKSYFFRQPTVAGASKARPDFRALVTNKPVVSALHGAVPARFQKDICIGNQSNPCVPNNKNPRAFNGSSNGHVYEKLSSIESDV

Row | SMILES | IC50 [1] [µM] | IC50 [2] [µM]
1 | COc1ccc(-c2cnc3[nH]c(=O)n(CC(=O)NC4CC4)c3c2)c(OC)c1 [Example 454, N-Cyclopropyl-2-[6-(2,4-dimethoxyphenyl)-2-oxo-3H-imidazo[4,5-b]pyridin-1-yl]acetamide] | 1.94 | –
2 | COc1cccc(F)c1-c1cnc2[nH]c(=O)n(CC(=O)NC3CC3)c2c1 [Example 455, N-Cyclopropyl-2-[6-(2-fluoro-6-methoxy-phenyl)-2-oxo-3H-imidazo[4,5-b]pyridin-1-yl]acetamide] | – | 0.416
3 | CCOc1ccccc1-c1cnc2[nH]c(=O)n(CC(=O)NC3CC3)c2c1 [Example 456, N-Cyclopropyl-2-[6-(2-ethoxyphenyl)-2-oxo-3H-imidazo[4,5-1D]pyridin-1-yl]acetamide] | – | 0.146
4 | COc1ccc(-c2cnc3[nH]c(=O)n(CC(=O)c4cccs4)c3c2)cc1F [Example 457, 6-(3-Fluoro-4-methoxy-phenyl)-1-[2-oxo-2-(2-thienyl)ethyl]-3H-imidazo[4,5-b]pyridin-2-one] | – | 0.33
5 | CCOc1ccccc1-c1cnc2[nH]c(=O)n(CC(=O)c3cccs3)c2c1 [Example 458, 6-(2-Ethoxyphenyl)-1-[2-oxo-2-(2-thienyl)ethyl]-3H-imidazo[4,5-b]pyridin-2-one] | – | 0.135
6 | O=C(Cn1c(=O)[nH]c2ncc(-c3ccc(Cl)cc3)cc21)c1cccs1 [Example 459, 6-(4-Chlorophenyl)-1-[2-oxo-2-(2-thienyl)ethyl]-3H-imidazo[4,5-b]pyridin-2-one] | 1.42 | –
7 | CCOc1ccc(F)cc1-c1cnc2[nH]c(=O)n(CC(=O)c3cccs3)c2c1 [Example 460, 6-(2-Ethoxy-5-fluoro-phenyl)-1-[2-oxo-2-(2-thienyl)ethyl]-3H-imidazo[4,5-b]pyridin-2-one] | 1.77 | –
8 | COc1ccc(-c2cnc3[nH]c(=O)n(CC(=O)c4cccs4)c3c2)cc1 [Example 461, 6-(4-Methoxyphenyl)-1-[2-oxo-2-(2-thienyl)ethyl]-3H-imidazo[4,5-b]pyridin-2-one] | – | 0.054
9 | COc1cc(F)ccc1-c1cnc2[nH]c(=O)n(CC(=O)c3cccs3)c2c1 [Example 462, 6-(4-Fluoro-2-methoxy-phenyl)-1-[2-oxo-2-(2-thienyl)ethyl]-3H-imidazo[4,5-b]pyridin-2-one] | – | 0.255
10 | CCOc1cccc(-c2cnc3[nH]c(=O)n(CC(=O)c4cccs4)c3c2)c1 [Example 463, 6-(3-Ethoxyphenyl)-1-[2-oxo-2-(2-thienyl)ethyl]-3H-imidazo[4,5-b]pyridin-2-one] | 0.36 | –
11 | O=C(Cn1c(=O)[nH]c2ncc(-c3ccc(F)c(Cl)c3)cc21)c1cccs1 [Example 464, 6-(3-Chloro-4-fluoro-phenyl)-1-[2-oxo-2-(2-thienyl)ethyl]-3H-imidazo[4,5-b]pyridin-2-one] | – | 0.359
12 | COc1ccc(-c2cnc3[nH]c(=O)n(CC4CC4)c3c2)c(OC)c1 [Example 465, 1-(Cyclopropylmethyl)-6-(2,4-dimethoxyphenyl)-3H-imidazo[4,5-b]pyridin-2-one] | 14.4 | –
13 | CCOc1ccc(F)cc1-c1cnc2[nH]c(=O)n(CC3CC3)c2c1 [Example 466, 1-(Cyclopropylmethyl)-6-(2-ethoxy-5-fluoro-phenyl)-3H-imidazo[4,5-b]pyridin-2-one] | 15.8 | –
14 | COc1cc(F)ccc1-c1cnc2[nH]c(=O)n(CC3CC3)c2c1 [Example 467, 1-(Cyclopropylmethyl)-6-(4-fluoro-2-methoxy-phenyl)-3H-imidazo[4,5-b]pyridin-2-one] | 0.305 | –
15 | COc1ccc(-c2cnc3[nH]c(=O)n(CC4CC4)c3c2)cc1C [Example 468, 1-(Cyclopropylmethyl)-6-(4-methoxy-3-methyl-phenyl)-3H-imidazo[4,5-b]pyridin-2-one] | 4.17 | –
16 | COc1ccc(-c2cnc3[nH]c(=O)n(CC4CC4)c3c2)cc1F [Example 469, 1-(Cyclopropylmethyl)-6-(3-fluoro-4-methoxy-phenyl)-3H-imidazo[4,5-b]pyridin-2-one] | 0.944 | –
17 | O=c1[nH]c2ncc(-c3cc(F)cc(F)c3)cc2n1CC1CC1 [Example 470, 1-(Cyclopropylmethyl)-6-(3,5-difluorophenyl)-3H-imidazo[4,5-b]pyridin-2-one] | 0.509 | –
18 | COc1ccc(-c2cnc3[nH]c(=O)n(CC4CC4)c3c2)cc1 [Example 471, 1-(Cyclopropylmethyl)-6-(4-methoxyphenyl)-3H-imidazo[4,5-b]pyridin-2-one] | – | 1.8
19 | O=c1[nH]c2ncc(-c3cccs3)cc2n1CC1CC1 [Example 472, 1-(Cyclopropylmethyl)-6-(2-thienyl)-3H-imidazo[4,5-b]pyridin-2-one] | – | 1.56
20 | CN(C)c1cccc(-c2cnc3[nH]c(=O)n(CC4CC4)c3c2)c1 [Example 473, 1-(Cyclopropylmethyl)-6-[3-(dimethylamino)phenyl]-3H-imidazo[4,5-b]pyridin-2-one] | 15.7 | –
21 | Cc1cc(C)cc(-c2cnc3[nH]c(=O)n(CC4CC4)c3c2)c1 [Example 474, 1-(Cyclopropylmethyl)-6-(3,5-dimethylphenyl)-3H-imidazo[4,5-b]pyridin-2-one] | – | 3.57
22 | COc1cccc(-c2cnc3[nH]c(=O)n(CC4CCCO4)c3c2)c1 (centres unmarked) [Example 475, 6-(3-Methoxyphenyl)-1-(tetrahydrofuran-2-ylmethyl)-3H-imidazo[4,5-b]pyridin-2-one] | 0.157 | –
23 | COc1ccc(-c2cnc3[nH]c(=O)n(Cc4ccc(C#N)cc4)c3c2)cc1 [Example 476, 4-[[6-(4-Methoxyphenyl)-2-oxo-3H-imidazo[4,5-b]pyridin-1-yl]methyl]benzonitrile] | 4.53 | –

The remaining lines, values ahead:

Row | IC50 [1] [µM] | IC50 [2] [µM] | SMILES
24 | 3.16 | – | COc1ccc(-c2cnc3[nH]c(=O)n(Cc4cccc(C#N)c4)c3c2)cc1 [Example 477, 3-[[6-(4-Methoxyphenyl)-2-oxo-3H-imidazo[4,5-b]pyridin-1-yl]methyl]benzonitrile]
25 | 3.04 | – | COc1cc(F)ccc1-c1cnc2[nH]c(=O)n(Cc3cccc(C#N)c3)c2c1 [Example 478, 3-[[6-(4-Fluoro-2-methoxy-phenyl)-2-oxo-3H-imidazo[4,5-b]pyridin-1-yl]methyl]benzonitrile]
26 | – | 0.778 | Cc1cc(F)ccc1-c1cnc2[nH]c(=O)n(Cc3cccc(C#N)c3)c2c1 [Example 479, 3-[[6-(4-Fluoro-2-methyl-phenyl)-2-oxo-3H-imidazo[4,5-b]pyridin-1-yl]methyl]benzonitrile]
27 | 4.22 | – | N#Cc1cccc(Cn2c(=O)[nH]c3ncc(-c4ccc(F)c(Cl)c4)cc32)c1 [Example 480, 3-[[6-(3-Chloro-4-fluoro-phenyl)-2-oxo-3H-imidazo[4,5-b]pyridin-1-yl]methyl]benzonitrile]
28 | – | 2.25 | COc1cccc(F)c1-c1cnc2[nH]c(=O)n(Cc3ccccc3C#N)c2c1 [Example 481, 2-[[6-(2-Fluoro-6-methoxy-phenyl)-2-oxo-3H-imidazo[4,5-b]pyridin-1-yl]methyl]benzonitrile]
29 | 1.41 | – | N#Cc1ccccc1Cn1c(=O)[nH]c2ncc(-c3ccc(Cl)cc3)cc21 [Example 482, 2-[[6-(4-Chlorophenyl)-2-oxo-3H-imidazo[4,5-b]pyridin-1-yl]methyl]benzonitrile]
30 | 1.8 | – | Cc1cc(F)ccc1-c1cnc2[nH]c(=O)n(Cc3ccccc3C#N)c2c1 [Example 483, 2-[[6-(4-Fluoro-2-methyl-phenyl)-2-oxo-3H-imidazo[4,5-b]pyridin-1-yl]methyl]benzonitrile]
31 | – | 1.39 | CCOc1ccccc1-c1cnc2[nH]c(=O)n(Cc3ccccc3C#N)c2c1 [Example 484, 2-[[6-(2-Ethoxyphenyl)-2-oxo-3H-imidazo[4,5-b]pyridin-1-yl]methyl]benzonitrile]
32 | – | 0.031 | COc1cccc(-c2cnc3[nH]c(=O)n(Cc4ccccc4C#N)c3c2)c1 [Example 485, 2-[[6-(3-Methoxyphenyl)-2-oxo-3H-imidazo[4,5-b]pyridin-1-yl]methyl]benzonitrile]
33 | 3.84 | – | N#Cc1cccc(-c2cnc3[nH]c(=O)n(Cc4ccccc4C#N)c3c2)c1 [Example 486, 2-[[6-(3-Cyanophenyl)-2-oxo-3H-imidazo[4,5-b]pyridin-1-yl]methyl]benzonitrile]
34 | 2.57 | – | COc1ccc(-c2cnc3[nH]c(=O)n(Cc4ccccc4C#N)c3c2)c(OC)c1 [Example 487, 2-[[6-(2,4-Dimethoxyphenyl)-2-oxo-3H-imidazo[4,5-b]pyridin-1-yl]methyl]benzonitrile]
35 | 4.95 | – | Cc1cc(C)cc(-c2cnc3[nH]c(=O)n(Cc4ccccc4C#N)c3c2)c1 [Example 488, 2-[[6-(3,5-Dimethylphenyl)-2-oxo-3H-imidazo[4,5-b]pyridin-1-yl]methyl]benzonitrile]
36 | 1.28 | – | CCOc1ccc(F)cc1-c1cnc2[nH]c(=O)n(Cc3ccccc3C#N)c2c1 [Example 489, 2-[[6-(2-Ethoxy-5-fluoro-phenyl)-2-oxo-3H-imidazo[4,5-b]pyridin-1-yl]methyl]benzonitrile]
37 | – | 0.046 | COc1cc(F)ccc1-c1cnc2[nH]c(=O)n(Cc3ccccc3C#N)c2c1 [Example 490, 2-[[6-(4-Fluoro-2-methoxy-phenyl)-2-oxo-3H-imidazo[4,5-b]pyridin-1-yl]methyl]benzonitrile]
38 | – | 0.053 | COc1ccc(-c2cnc3[nH]c(=O)n(Cc4ccccc4C#N)c3c2)cc1F [Example 491, 2-[[6-(3-Fluoro-4-methoxy-phenyl)-2-oxo-3H-imidazo[4,5-b]pyridin-1-yl]methyl]benzonitrile]
39 | 6.12 | – | Cc1cc(F)ccc1-c1cnc2[nH]c(=O)n(Cc3ccc(F)cc3)c2c1 [Example 492, 6-(4-Fluoro-2-methyl-phenyl)-1-[(4-fluorophenyl)methyl]-3H-imidazo[4,5-b]pyridin-2-one]
40 | 1.01 | – | COc1cccc(-c2cnc3[nH]c(=O)n(Cc4ccc(F)cc4)c3c2)c1OC [Example 493, 6-(2,3-Dimethoxyphenyl)-1-[(4-fluorophenyl)methyl]-3H-imidazo[4,5-b]pyridin-2-one]
41 | 5.64 | – | CCOc1ccc(F)cc1-c1cnc2[nH]c(=O)n(Cc3cccc(F)c3)c2c1 [Example 494, 6-(2-Ethoxy-5-fluoro-phenyl)-1-[(3-fluorophenyl)methyl]-3H-imidazo[4,5-b]pyridin-2-one]

Reference: patent US11759455B2, “Substituted 1H-imidazo[4,5-b]pyridin-2(3H)-ones and their use as GLUN2B receptor modulators” (JANSSEN PHARMACEUTICA NV, priority 2016, dated 2023)
